# Reference: PubChem BioAssay (NCI)
#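 Following 48 hours of exposure in 96-well plates, responses at five concentrations were used to interpolate endpoints linearly. GI50 is the concentration that inhibits growth by half. TGI denotes the concentration required for complete inhibition of growth.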
# Assays:
# Experiment in all cases: NCI tumour cell line growth inhibition, 48 h
# KM12 colon = tested on: KM12 colon
# CAKI-1 renal = tested on: CAKI-1 renal
# LOX IMVI melanoma = tested on: LOX IMVI melanoma
# NCI-H522 lung = tested on: NCI-H522 lung
# OVCAR-3 ovarian = tested on: OVCAR-3 ovarian
# SK-OV-3 ovarian = tested on: SK-OV-3 ovarian
# COLO 205 colon = tested on: COLO 205 colon
# TK-10 renal = tested on: TK-10 renal
# CCRF-CEM leukemia = tested on: CCRF-CEM leukemia
# NCI-H460 lung = tested on: NCI-H460 lung
# UACC-257 melanoma = tested on: UACC-257 melanoma
# HT29 colon = tested on: HT29 colon
# SF-539 CNS = tested on: SF-539 CNS
# DMS 114 small cell lung = tested on: DMS 114 small cell lung
# NCI-H23 lung = tested on: NCI-H23 lung
# HOP-62 NSCLC = tested on: HOP-62 NSCLC
# RPMI-8226 leukemia = tested on: RPMI-8226 leukemia
# A549 NSCLC = tested on: A549 NSCLC
# U251 CNS = tested on: U251 CNS
# M14 melanoma = tested on: M14 melanoma
# SN12C renal = tested on: SN12C renal
# ACHN renal = tested on: ACHN renal
# UACC-62 melanoma = tested on: UACC-62 melanoma
# RXF 393 renal = tested on: RXF 393 renal
# SNB-75 CNS = tested on: SNB-75 CNS
# HOP-92 NSCLC = tested on: HOP-92 NSCLC
# DLD-1 colon = tested on: DLD-1 colon
# OVCAR-5 ovarian = tested on: OVCAR-5 ovarian
# MALME-3M melanoma = tested on: MALME-3M melanoma
# IGROV1 ovarian = tested on: IGROV1 ovarian
# HL-60(TB) leukemia = tested on: HL-60(TB) leukemia
# SW-620 colon = tested on: SW-620 colon
# SK-MEL-5 melanoma = tested on: SK-MEL-5 melanoma
# SK-MEL-28 melanoma = tested on: SK-MEL-28 melanoma
# OVCAR-4 ovarian = tested on: OVCAR-4 ovarian
# SK-MEL-2 melanoma = tested on: SK-MEL-2 melanoma
# SF-268 CNS = tested on: SF-268 CNS
# DMS 273 small cell lung = tested on: DMS 273 small cell lung
# OVCAR-8 ovarian = tested on: OVCAR-8 ovarian
# HCC-2998 colon = tested on: HCC-2998 colon
# 786-0 renal = tested on: 786-0 renal
# EKVX NSCLC = tested on: EKVX NSCLC
# UO-31 renal = tested on: UO-31 renal
# SNB-19 CNS = tested on: SNB-19 CNS
# MOLT-4 leukemia = tested on: MOLT-4 leukemia
# LXFL 529 NSCLC = tested on: LXFL 529 NSCLC
# SF-295 CNS = tested on: SF-295 CNS
# KM20L2 colon = tested on: KM20L2 colon
# HOP-18 NSCLC = tested on: HOP-18 NSCLC
# K-562 leukemia = tested on: K-562 leukemia
# M19-MEL melanoma = tested on: M19-MEL melanoma
# HCT-15 colon = tested on: HCT-15 colon
# NCI-H226 lung = tested on: NCI-H226 lung
# HCT-116 colon = tested on: HCT-116 colon
# A498 renal = tested on: A498 renal
structure (smiles),measurement,setting,value
N#CC1(C#N)C(c2ccc(C3C(C#N)(C#N)C3(C#N)C#N)cc2)C1(C#N)C#N,TGI,KM12 colon,> 100 µM
same,TGI,CAKI-1 renal,> 100 µM
same,TGI,LOX IMVI melanoma,> 100 µM
same,TGI,NCI-H522 lung,> 100 µM
same,TGI,OVCAR-3 ovarian,> 100 µM
same,TGI,SK-OV-3 ovarian,> 100 µM
same,TGI,COLO 205 colon,> 100 µM
same,TGI,TK-10 renal,> 100 µM
same,TGI,CCRF-CEM leukemia,> 100 µM
same,TGI,NCI-H460 lung,> 100 µM
same,TGI,UACC-257 melanoma,> 100 µM
same,TGI,HT29 colon,> 100 µM
same,TGI,SF-539 CNS,> 100 µM
same,TGI,DMS 114 small cell lung,> 100 µM
same,TGI,NCI-H23 lung,> 100 µM
same,TGI,HOP-62 NSCLC,> 100 µM
same,TGI,RPMI-8226 leukemia,> 100 µM
same,TGI,A549 NSCLC,> 100 µM
same,TGI,U251 CNS,> 100 µM
same,TGI,M14 melanoma,> 100 µM
same,TGI,SN12C renal,> 100 µM
same,TGI,ACHN renal,> 100 µM
same,TGI,UACC-62 melanoma,> 100 µM
same,TGI,RXF 393 renal,> 100 µM
same,TGI,SNB-75 CNS,> 100 µM
same,TGI,HOP-92 NSCLC,> 100 µM
same,TGI,DLD-1 colon,> 100 µM
same,TGI,OVCAR-5 ovarian,> 100 µM
same,TGI,MALME-3M melanoma,> 100 µM
same,TGI,IGROV1 ovarian,> 100 µM
same,TGI,HL-60(TB) leukemia,> 100 µM
same,TGI,SW-620 colon,> 100 µM
same,TGI,SK-MEL-5 melanoma,> 100 µM
same,TGI,SK-MEL-28 melanoma,> 100 µM
same,TGI,OVCAR-4 ovarian,> 100 µM
same,TGI,SK-MEL-2 melanoma,> 100 µM
same,TGI,SF-268 CNS,> 100 µM
same,TGI,DMS 273 small cell lung,> 100 µM
same,TGI,OVCAR-8 ovarian,> 100 µM
same,TGI,HCC-2998 colon,> 100 µM
same,TGI,786-0 renal,> 100 µM
same,TGI,EKVX NSCLC,> 100 µM
same,TGI,UO-31 renal,> 100 µM
same,TGI,SNB-19 CNS,> 100 µM
same,TGI,MOLT-4 leukemia,> 100 µM
same,TGI,LXFL 529 NSCLC,> 100 µM
same,TGI,SF-295 CNS,> 100 µM
same,TGI,KM20L2 colon,> 100 µM
same,TGI,HOP-18 NSCLC,> 100 µM
same,TGI,K-562 leukemia,> 100 µM
same,TGI,M19-MEL melanoma,> 100 µM
same,TGI,HCT-15 colon,> 100 µM
C1C[OH+]CCNCC[OH+]CC[OH+]CCN1.O.[Cl-].[Pt+4],GI50,KM12 colon,> 100 µM
same,TGI,KM12 colon,> 100 µM
same,GI50,NCI-H226 lung,> 100 µM
same,TGI,NCI-H226 lung,> 100 µM
same,GI50,CAKI-1 renal,> 100 µM
same,TGI,CAKI-1 renal,> 100 µM
same,GI50,LOX IMVI melanoma,> 100 µM
same,TGI,LOX IMVI melanoma,> 100 µM
same,GI50,OVCAR-3 ovarian,> 100 µM
same,TGI,OVCAR-3 ovarian,> 100 µM
same,GI50,SK-OV-3 ovarian,> 100 µM
same,TGI,SK-OV-3 ovarian,> 100 µM
same,GI50,COLO 205 colon,> 100 µM
same,TGI,COLO 205 colon,> 100 µM
same,GI50,TK-10 renal,> 100 µM
same,TGI,TK-10 renal,> 100 µM
same,GI50,CCRF-CEM leukemia,> 100 µM
same,TGI,CCRF-CEM leukemia,> 100 µM
same,GI50,NCI-H460 lung,> 100 µM
same,TGI,NCI-H460 lung,> 100 µM
same,GI50,UACC-257 melanoma,> 100 µM
same,TGI,UACC-257 melanoma,> 100 µM
same,GI50,HT29 colon,> 100 µM
same,TGI,HT29 colon,> 100 µM
same,GI50,SF-539 CNS,> 100 µM
same,TGI,SF-539 CNS,> 100 µM
same,GI50,HOP-62 NSCLC,> 100 µM
same,TGI,HOP-62 NSCLC,> 100 µM
same,GI50,RPMI-8226 leukemia,> 100 µM
same,TGI,RPMI-8226 leukemia,> 100 µM
same,GI50,A549 NSCLC,> 100 µM
same,TGI,A549 NSCLC,> 100 µM
same,GI50,U251 CNS,> 100 µM
same,TGI,U251 CNS,> 100 µM
same,GI50,M14 melanoma,> 10 µM
same,TGI,M14 melanoma,> 10 µM
same,GI50,SN12C renal,> 100 µM
same,TGI,SN12C renal,> 100 µM
same,GI50,ACHN renal,> 100 µM
same,TGI,ACHN renal,> 100 µM
same,GI50,UACC-62 melanoma,> 100 µM
same,TGI,UACC-62 melanoma,> 100 µM
same,GI50,SNB-75 CNS,> 100 µM
same,TGI,SNB-75 CNS,> 100 µM
same,GI50,HOP-92 NSCLC,> 10 µM
same,TGI,HOP-92 NSCLC,> 10 µM
same,GI50,DLD-1 colon,> 100 µM
same,TGI,DLD-1 colon,> 100 µM
same,GI50,HCT-116 colon,> 100 µM
same,TGI,HCT-116 colon,> 100 µM
same,GI50,MALME-3M melanoma,> 100 µM
same,TGI,MALME-3M melanoma,> 100 µM
same,GI50,IGROV1 ovarian,> 100 µM
same,TGI,IGROV1 ovarian,> 100 µM
same,GI50,HL-60(TB) leukemia,> 100 µM
same,TGI,HL-60(TB) leukemia,> 100 µM
same,GI50,A498 renal,> 100 µM
same,TGI,A498 renal,> 100 µM
same,GI50,SW-620 colon,> 100 µM
same,TGI,SW-620 colon,> 100 µM
same,GI50,SK-MEL-5 melanoma,> 100 µM
same,TGI,SK-MEL-5 melanoma,> 100 µM
same,GI50,SK-MEL-28 melanoma,> 100 µM
same,TGI,SK-MEL-28 melanoma,> 100 µM
same,GI50,OVCAR-4 ovarian,> 100 µM
same,TGI,OVCAR-4 ovarian,> 100 µM
same,GI50,SK-MEL-2 melanoma,> 100 µM
same,TGI,SK-MEL-2 melanoma,> 100 µM
same,GI50,SF-268 CNS,> 100 µM
same,TGI,SF-268 CNS,> 100 µM
same,GI50,DMS 273 small cell lung,> 100 µM
same,TGI,DMS 273 small cell lung,> 100 µM
same,GI50,OVCAR-8 ovarian,> 100 µM
same,TGI,OVCAR-8 ovarian,> 100 µM
same,GI50,HCC-2998 colon,> 100 µM
same,TGI,HCC-2998 colon,> 100 µM
same,GI50,786-0 renal,> 100 µM
same,TGI,786-0 renal,> 100 µM
same,GI50,UO-31 renal,> 100 µM
same,TGI,UO-31 renal,> 100 µM
same,GI50,SNB-19 CNS,> 100 µM
same,TGI,SNB-19 CNS,> 100 µM
same,GI50,MOLT-4 leukemia,> 100 µM
same,TGI,MOLT-4 leukemia,> 100 µM
same,GI50,LXFL 529 NSCLC,> 100 µM
same,TGI,LXFL 529 NSCLC,> 100 µM
same,GI50,SF-295 CNS,> 100 µM
same,TGI,SF-295 CNS,> 100 µM
same,GI50,KM20L2 colon,> 100 µM
same,TGI,KM20L2 colon,> 100 µM
same,GI50,HOP-18 NSCLC,> 100 µM
same,TGI,HOP-18 NSCLC,> 100 µM
same,GI50,K-562 leukemia,> 100 µM
same,TGI,K-562 leukemia,> 100 µM
same,GI50,HCT-15 colon,> 100 µM
same,TGI,HCT-15 colon,> 100 µM
